± gives the standard deviation of the averaged measurements.
Legend:
[1] = compound: T1, CC/C(=C(\c1ccc(O)cc1)c1ccc(OCCN(C)C)cc1)c1ccccc1 [AFIMOXIFENE]; assay: surviving fraction relative to DMSO-only wells; higher = less growth inhibition; settings: exposure time: 5 days
Outline: (§1)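 Log-phase tumour cell lines were seeded at 250–500 cells per well in 384-well plates. After 24 hours they were exposed continuously for five days to inhibitors at 0.5, 1, 5, 10, 50, 100, 500 and 1000 nM. Viability was read by CellTiter-Glo luminescence after 10 minutes at room temperature, and surviving fraction is luminescence normalised to the median of DMSO-only wells. Each line was screened three times and kept only if replicate Pearson r >0.7 and median Z' >0.3.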

[2] = compound: Cc1ccc(NC(=O)c2ccc(CN3CCN(C)CC3)cc2)cc1Nc1nccc(-c2cccnc2)n1 [IMATINIB]; assay: as above; settings: exposure time: 5 days
Outline: as §1

[3] = compound: C=CCn1c(=O)c2cnc(Nc3ccc(N4CCN(C)CC4)cc3)nc2n1-c1cccc(C(C)(C)O)n1 [MK-1775]; assay: area under dose-response curve of surviving fraction (unscaled, Aref=0) (surviving fraction x log10(nM)); higher = more resistant; settings: exposure time: 5 days; dose range 0.5-1000 nM
Outline: (§2)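 Tumour cell lines in 384-well plates were exposed to eight inhibitor concentrations, from 0.5 to 1000 nM, for five days, and viability was read by CellTiter-Glo luminescence in three screens per line. Signals were normalised to DMSO-only wells, and 3-parameter logistic regression in the drc R package fitted dose-response survival curves to the surviving fractions. Area under the curve is given as the unscaled activity area. That area is taken over log10 dose with Aref = 0.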

[4] = compound: T1, AFIMOXIFENE; assay: as above; settings: exposure time: 5 days; dose range 0.5-1000 nM
Outline: as §2

[5] = compound: COc1cc2nccc(Oc3ccc(NC(=O)C4(C(=O)Nc5ccc(F)cc5)CC4)cc3)c2cc1OC [CABOZANTINIB]; assay: as above; settings: exposure time: 5 days; dose range 0.5-1000 nM
Outline: as §2

[6] = compound: Cc1c(N)nc([C@H](CC(N)=O)NC[C@H](N)C(N)=O)nc1C(=O)N[C@H](C(=O)N[C@H](C)[C@@H](O)[C@H](C)C(=O)N[C@H](C(=O)NCCc1nc(-c2nc(C(=O)NCCC[S+](C)C)cs2)cs1)[C@@H](C)O)[C@@H](OC1OC(CO)C(O)C(O)C1OC1OC(CO)C(O)C(OC(N)=O)C1O)c1cnc[nH]1 [BLEOMYCIN]; assay: as above; settings: exposure time: 5 days; dose range 0.5-1000 nM
Outline: as §2

| Test System | surviving fraction ([1]; 0.5 nM) | surviving fraction ([1]; 1 nM) | surviving fraction ([1]; 5 nM) | surviving fraction ([1]; 10 nM) | surviving fraction ([1]; 50 nM) | surviving fraction ([1]; 100 nM) | surviving fraction ([1]; 500 nM) | surviving fraction ([1]; 1000 nM) | surviving fraction ([2]; 0.5 nM) | surviving fraction ([2]; 1 nM) | surviving fraction ([2]; 5 nM) | surviving fraction ([2]; 50 nM) | surviving fraction ([2]; 100 nM) | surviving fraction ([2]; 500 nM) | surviving fraction ([2]; 1000 nM) | area under dose-response curve [3] | area under dose-response curve [4] | area under dose-response curve [5] | area under dose-response curve [6] | surviving fraction ([2]; 10 nM) |
| --- | --- | --- | --- | --- | --- | --- | --- | --- | --- | --- | --- | --- | --- | --- | --- | --- | --- | --- | --- | --- |
| HU09 BONE | 1 ± 0.069 | 0.969 ± 0.057 | 1.02 ± 0.077 | 1.21 ± 0.1 | 1.13 ± 0.08 | 1.04 ± 0.065 | 0.971 ± 0.083 | 0.945 ± 0.038 | 1.05 ± 0.19 | 1.01 ± 0.034 | 1.16 ± 0.038 | 0.878 ± 0.084 | 0.89 ± 0.0044 | 0.554 ± 0.027 | 0.483 ± 0.026 | 2.34 | 3.44 | 2.66 | 2.58 | – |
| HUO3N1 BONE | 1.06 ± 0.046 | 1.03 ± 0.038 | 1.1 ± 0.065 | 1.09 ± 0.029 | 1.12 ± 0.057 | 1.06 ± 0.043 | 0.932 ± 0.074 | 0.849 ± 0.033 | 1.06 ± 0.039 | 0.9677 ± 0.0058 | 1.072 ± 0.0071 | – | – | 0.892 ± 0.038 | 0.878 ± 0.062 | 2.77 | 3.5 | 3 | 2.94 | 1.04 ± 0.027 |
| JIMT1 BREAST | 1.01 ± 0.045 | 0.972 ± 0.026 | 1 ± 0.032 | 0.994 ± 0.048 | 1.08 ± 0.065 | 1.05 ± 0.066 | 1.04 ± 0.08 | 0.939 ± 0.024 | 1.04 ± 0.047 | 1 ± 0.051 | 1.03 ± 0.029 | – | 1.08 ± 0.039 | 1.03 ± 0.056 | 1.03 ± 0.045 | 2.04 | 3.34 | 3.5 | 2.8 | 0.99 ± 0.028 |
| JURKAT HAEMATOPOIETIC AND LYMPHOID TISSUE | 1.06 ± 0.023 | 1.03 ± 0.026 | 1.03 ± 0.021 | 1.04 ± 0.015 | 0.953 ± 0.024 | 0.935 ± 0.061 | 0.991 ± 0.011 | 1.03 ± 0.025 | 1.05 ± 0.031 | 1.07 ± 0.031 | 0.986 ± 0.034 | 0.994 ± 0.032 | 1.02 ± 0.038 | 1.03 ± 0.039 | 1.04 ± 0.041 | 2.46 | 3.27 | 3.38 | 2.64 | – |
| KPD BONE | 1.03 ± 0.043 | 1.03 ± 0.022 | 1.14 ± 0.088 | 1.07 ± 0.043 | 1.132 ± 0.011 | 1.1 ± 0.04 | 0.976 ± 0.049 | 0.83 ± 0.035 | 1.077 ± 0.008 | 0.983 ± 0.068 | 1.11 ± 0.043 | 1.16 ± 0.067 | 1.05 ± 0.097 | – | 0.99 ± 0.023 | 2.7 | 3.52 | 3.33 | 2.48 | 1.1 ± 0.082 |
| LM7 BONE | 1.02 ± 0.12 | 1.07 ± 0.039 | 1.06 ± 0.063 | 1.09 ± 0.075 | 1.15 ± 0.092 | 1.09 ± 0.039 | 1.03 ± 0.016 | 0.914 ± 0.058 | – | – | – | 1.19 ± 0.074 | 1.17 ± 0.063 | 1.04 ± 0.016 | 0.959 ± 0.11 | 2.34 | 3.53 | 3.43 | 2.46 | 1.11 ± 0.082 |
| MCF7 BREAST | 1.02 ± 0.045 | 0.976 ± 0.045 | 0.917 ± 0.036 | 0.928 ± 0.045 | 0.877 ± 0.035 | 0.857 ± 0.037 | 0.834 ± 0.046 | 0.775 ± 0.012 | 0.988 ± 0.064 | – | 0.97 ± 0.03 | 1.04 ± 0.018 | 1.01 ± 0.033 | 1.05 ± 0.043 | 0.986 ± 0.014 | 2.74 | 2.96 | 2.91 | 2.65 | 0.955 ± 0.062 |
| MDAMB231 BREAST | 0.987 ± 0.017 | 1.01 ± 0.032 | 1.01 ± 0.045 | 1.01 ± 0.023 | 1.02 ± 0.024 | 1.02 ± 0.018 | 1.01 ± 0.024 | 0.955 ± 0.035 | 0.9973 ± 0.0088 | 1.03 ± 0.04 | 1.01 ± 0.039 | 1 ± 0.058 | 1.01 ± 0.027 | 0.968 ± 0.042 | 0.96 ± 0.024 | 2.54 | 3.31 | 3.22 | 2.82 | 1.03 ± 0.022 |
| MDAMB361 BREAST | 0.875 ± 0.038 | 0.832 ± 0.096 | 0.756 ± 0.061 | 0.815 ± 0.11 | 0.854 ± 0.081 | 0.856 ± 0.037 | 1.09 ± 0.078 | 0.782 ± 0.013 | 0.927 ± 0.066 | 0.879 ± 0.079 | 0.826 ± 0.018 | 0.869 ± 0.082 | 0.879 ± 0.081 | – | 0.827 ± 0.087 | 2.29 | 2.82 | 2.85 | 2.67 | 0.878 ± 0.046 |
| MDAMB436 BREAST | 0.962 ± 0.085 | 0.99 ± 0.11 | 0.965 ± 0.087 | 1.03 ± 0.21 | 1.03 ± 0.11 | 1.08 ± 0.13 | 1.01 ± 0.066 | 1 ± 0.063 | 1.01 ± 0.078 | 0.984 ± 0.11 | 0.985 ± 0.079 | 1.04 ± 0.14 | – | 1.1 ± 0.12 | – | 2.4 | 3.33 | 3.27 | 2.47 | 0.998 ± 0.093 |
| MDAMB468 BREAST | 1.01 ± 0.021 | 0.991 ± 0.034 | 1.06 ± 0.054 | 1.09 ± 0.02 | 1.12 ± 0.077 | 1.21 ± 0.046 | 1.14 ± 0.024 | 1.05 ± 0.0095 | 0.997 ± 0.075 | 1.05 ± 0.059 | 1.01 ± 0.02 | 1.09 ± 0.081 | 1.18 ± 0.032 | 1.103 ± 0.01 | 1.06 ± 0.06 | 2.87 | 3.58 | 3.58 | 3.15 | 1.06 ± 0.066 |
| MFM223 BREAST | 1.28 ± 0.067 | 1.21 ± 0.043 | 1.19 ± 0.084 | 1.22 ± 0.13 | 1.2 ± 0.043 | – | 1.1 ± 0.062 | 0.932 ± 0.043 | 1.27 ± 0.17 | 1.24 ± 0.041 | 1.13 ± 0.057 | 1.19 ± 0.063 | 1.17 ± 0.1 | 1.18 ± 0.055 | 1.15 ± 0.052 | 2.48 | 3.79 | 3.65 | 2.64 | 1.19 ± 0.14 |
| MHM BONE | 1.02 ± 0.021 | 1.03 ± 0.05 | 1.09 ± 0.049 | 1.07 ± 0.033 | 1.06 ± 0.025 | 1.06 ± 0.027 | 1.01 ± 0.022 | 1.02 ± 0.028 | 1.07 ± 0.032 | 1.03 ± 0.059 | 1.09 ± 0.043 | – | – | 1.08 ± 0.029 | – | 3.12 | 3.46 | 3.23 | 3.06 | 1.09 ± 0.045 |
| NCIH441 LUNG | 1.06 ± 0.11 | 1.07 ± 0.12 | 1.04 ± 0.11 | 1.12 ± 0.12 | 1.08 ± 0.11 | 1.14 ± 0.024 | 1.23 ± 0.03 | 1.03 ± 0.13 | 1.175 ± 0.0068 | 1.14 ± 0.076 | – | 1.03 ± 0.12 | 1.06 ± 0.082 | – | 1.16 ± 0.15 | 2.78 | 3.62 | 3.29 | 2.86 | 1.14 ± 0.053 |
| NOS1 BONE | 1.05 ± 0.094 | 1.16 ± 0.28 | 1.18 ± 0.08 | 1.27 ± 0.12 | 1.4 ± 0.15 | 1.21 ± 0.076 | 1.08 ± 0.072 | 0.973 ± 0.19 | 1.18 ± 0.11 | 1.12 ± 0.041 | 1.2 ± 0.085 | – | 1.06 ± 0.15 | 0.883 ± 0.14 | 0.898 ± 0.039 | 1.79 | 3.91 | 2.96 | 2.66 | 1.13 ± 0.11 |
| NY BONE | 1.03 ± 0.041 | 1.026 ± 0.0089 | 1.1 ± 0.023 | 1.08 ± 0.027 | 1.11 ± 0.055 | 1.082 ± 0.006 | 0.972 ± 0.0056 | 0.9223 ± 0.0081 | 1.08 ± 0.021 | 1.08 ± 0.022 | 1.12 ± 0.051 | 1.107 ± 0.0076 | 1.11 ± 0.025 | 1.04 ± 0.043 | 1.03 ± 0.019 | 2.18 | 3.43 | 3.07 | 2.43 | 1.1 ± 0.013 |

— the supplement of paper PMC6045584
